5 compounds from patent publication US6727252B1, “Methods of modulating serine/threonine protein kinase function with 5-azaquinoxaline-based compounds” (Zentaris AG, priority 1997, dated 2004) can be followed below.

Data set [1] has as its system 3T3/H-Ras (NIH 3T3 clone 7 cells expressing genomic fragment of oncogenic H-Ras). As to the kind of experiment: Growth of NIH 3T3 cells over expressing H-Ras (SRB). Type of data set: cell-based. Conditions: Mus musculus, NIH3T3, 72 h; cell growth, 2% calf serum/DMEM, 3 days with compound. The protocol:
The following assay measures growth rates for NIH-3T3 cells expressing RAS. The purpose of the assay is to determine the effects of compounds on the growth of NIH 3T3 cells over expressing H-Ras.
3T3/H-Ras (NIH 3T3 clone 7 cells expressing genomic fragment of oncogenic H-Ras).
2% calf serum/DMEM+2 mM glutamine, Pen/Strep
(§1) 1. Trypsinize cells. Transfer […] of cell suspension to 10 mL of isotone. Count cells with a Coulter Counter.
2. Dilute cells in growth medium to 60,000 cell/mL. Transfer 100 µL of cells to each well in a 96-well flat bottom plate to give 6000 cells/well.
3. Use half of plate (4 rows) for each comound and quadruplicate wells for each comound concentration, and a set of 4 wells for medium control.
(§2) 4. Gently shake plates to allow for uniform attachment of the cells.
(§3) 5. Incubate the plates at 37 C in a 10% CO2 incubator.
1. In a 96-well round bottom plate, add 120 µL of growth medium containing 2×final % DMSO found in highest screening concentration of compound to columns 1 to 11. For example, if the highest concentration is […], and this is made from a 100 mM stock, 1×DMSO is 0.1%, so 2×DMSO is 0.2%. This plate is used to titrate out the compound, 4 rows per compound.
2. In a sterile 15 mL tube, make a 2×solution of the highest screening concentration of compound in growth medium plus 2×DMSO. 1 mL per cell line is needed. The starting concentration of the compound is usually 100 µM but this concentration may vary depending upon the solubility of the compound.
3. Transfer 240 µL of the 2×starting compound solution to qudruplicate wells in column 12 of the 96-well round bottom plate. Do 1:2 serial dilutions across the plate from right to left by transferring […] from column 12 to column 11, column 11 to 10 and so on through column 2. Transfer 100 µL of compound dilutions, and 100 µL of medium in column 1, onto […] medium on cells in corresponding wells of 96-well flat bottom plate. Total volume per well should be […].
4. Return the plate to the incubattor and incubate for 3 days.
(§4) 1. Aspirate or pour off medium. Add […] cold 10% TCA to each well to fix cells. Incubate plate for at least 60 min. at 4 C.
(§5) 2. Discard TCA and rinse wells 5 times with tap water. Dry plates upside down on paper towels.
(§6) 3. Stain cells with 100 µL/well 0.4% SRB for 10 min.
4. Pour of SRB and rinse wells 5 times with 1% acetic acid. Dry plates completely upside down on paper towels.
(§7) 5. Solubilize dye with 100 µL/well 10 mM Tris base for 5-10 min. on shaker.
6. Read plates on Dynatech ELISA Plate REader at 570 nm with reference at 630 nm.

Data set [2] has as its system A549 human lung carcinoma cells. Nature of the data set: Growth of A549 cells (SRB). Type of data set: cell-based. Conditions: cell growth. The procedure: The following assay measures growth rates for A549 cells. The purpose of the assay is to determine the effects of compounds on the growth of A549 human lung carcinoma cells. A549 cells are readily accessible from commercial sources, such as ATCC (CCL185). […]
as §1
2. Dilute cells in growth medium to 20,000 cell/mL. Transfer 100 µL of cells to each well in a 96-well flat bottom plate to give 2000 cells/well.
3. Use half of plate (4 rows) for each compound and quadruplicate wells for each compound concentration, and a set of 4 wells for medium control.
as §2, §3
1. In a 96 well-round bottom plate, add 120 µL of growth medium containing 2×final %DMSO found in highest screening concentration of compound to columns 1 to 11. For example, if the highest screening concentration is 100 µM, and this is made from a 100 mM stock, 1×DMSO is 0.1%, so 2×DMSO is 0.2%. This plate is used to titrate out the compound, 4 rows per compound.
2. In a sterile 15 mL tube, make a 2×solution of the highest screening concentration of compound in growth medium plus. 2×DMSO. 1 mL per cell line is needed. The starting concentration of the compound is usually 100 µM but this concentration may vary depending upon the solubility of the compound.
3. Transfer 240 µL of the 2×starting compound solution to quadruplicate wells in column 12 of the 96-well round bottom plate. Do 1:2 serial dilutions across the plate from right to left by transferring […] from column 12 to column 11, column 11 to 10 and so on through column
2. Transfer 100 µL of compound dilutions, and 100 µL of medium in column 1, onto […] medium on cells in corresponding wells of 96-well flat bottom plate. Total volume per well should be 200 L.
4. Return the plate to the incubator and incubate for 3 days.
as §4, §5, §6
4. Pour off SRB and rinse wells 5 times with 1% acetic acid. Dry plates completely upside down on paper towels.
as §7
6. Read plates on Dynatech ELISA Plate Reader at 570 nm with reference at 630 nm.

Setting [3] is: 2% FBS, read-out: IC50 (M) A549 (2% FBS).
The mark [4] stands for this setting: growth medium 10% fetal calf serum in Ham's F12-K, read-out: IC50 (M) A549.

Broadly, the IC50 is the concentration that gives 50% inhibition. Broadly, the melting point is the temperature of the solid-liquid transition.

Molecules are shown by their SMILES. Like-named read-outs stand apart in the source and are kept apart here.

For `Oc1ccc(-c2cnc3ccc(Nc4ccccc4Cl)nc3n2)cc1` [Compound A-36, 6-(2-Chlorophenylamino)3-(4-hydroxyphenyl)-5-azaquinoxaline], the IC50 in data set [1] came to 0.18 µM.

In turn, `Oc1ccc(-c2cnc3ccc(NCc4ccccc4)nc3n2)cc1` [Compound A-2, 6-Benzylamino-3-(4-hydroxyphenyl)-5-Azaquinoxaline] gave a melting point of 271 to 273 °C. In data set [2] (setting [3]), the half-maximal inhibitory concentration (IC50) was more than 1e-05 M. The IC50 in data set [2] (setting [4]) is 2.51e-05 M. In data set [1], the IC50 is 7.6 µM.

Take `Clc1ccccc1Nc1ccc2ncc(-c3ccccc3)nc2n1` [Compound A-77, 6-(2-Chlorophenylamino)-3-phenyl-5-azaquinoxaline]: in data set [1], the IC50 amounted to 0.7 µM.

`Fc1ccc(CNc2ccc3nc(-c4ccccc4)c(-c4ccccc4)nc3n2)cc1` [Compound A-6, 2,3-Diphenyl-6-(4-fluorobenzylamino)-5-azaquinoxaline]: the IC50 was more than 1e-05 M in data set [2] (setting [3]), 2.38e-05 M in data set [2] (setting [4]) and 13.5 µM in data set [1].

Regarding `Oc1ccc(-c2cnc3ccc(Nc4ccccc4)nc3n2)cc1` [Compound A-1, 6-Phenylamino-3-(4-hydroxyphenyl)-5-azaquinoxaline], the IC50 in data set [1] stood at 1.04 µM.
